From publication PMC4457528, “Identification of Novel Small Molecule Inhibitors of Oncogenic RET Kinase” (PLoS ONE, 2015)
Like-named read-outs stand apart in the source and are kept apart here.

Legend:
Assay in all cases: KinomeScan kinase panel, single concentration 10 µM
Type in all cases: binding
KinomeScan kinase panel [1] = target: T1, KinomeScan kinase panel (Homo sapiens, UniProt O43293); details: DAPK3, 10 µM; read-out: score (%)
T1 construct: purchased DiscoveRx (KinomeScan)

KinomeScan kinase panel [2] = target: T2, KinomeScan kinase panel (Homo sapiens, UniProt Q16832); details: DDR2, 10 µM; read-out: score (%)
T2 construct: purchased DiscoveRx (KinomeScan)
T2 sequence (Q16832 22-855): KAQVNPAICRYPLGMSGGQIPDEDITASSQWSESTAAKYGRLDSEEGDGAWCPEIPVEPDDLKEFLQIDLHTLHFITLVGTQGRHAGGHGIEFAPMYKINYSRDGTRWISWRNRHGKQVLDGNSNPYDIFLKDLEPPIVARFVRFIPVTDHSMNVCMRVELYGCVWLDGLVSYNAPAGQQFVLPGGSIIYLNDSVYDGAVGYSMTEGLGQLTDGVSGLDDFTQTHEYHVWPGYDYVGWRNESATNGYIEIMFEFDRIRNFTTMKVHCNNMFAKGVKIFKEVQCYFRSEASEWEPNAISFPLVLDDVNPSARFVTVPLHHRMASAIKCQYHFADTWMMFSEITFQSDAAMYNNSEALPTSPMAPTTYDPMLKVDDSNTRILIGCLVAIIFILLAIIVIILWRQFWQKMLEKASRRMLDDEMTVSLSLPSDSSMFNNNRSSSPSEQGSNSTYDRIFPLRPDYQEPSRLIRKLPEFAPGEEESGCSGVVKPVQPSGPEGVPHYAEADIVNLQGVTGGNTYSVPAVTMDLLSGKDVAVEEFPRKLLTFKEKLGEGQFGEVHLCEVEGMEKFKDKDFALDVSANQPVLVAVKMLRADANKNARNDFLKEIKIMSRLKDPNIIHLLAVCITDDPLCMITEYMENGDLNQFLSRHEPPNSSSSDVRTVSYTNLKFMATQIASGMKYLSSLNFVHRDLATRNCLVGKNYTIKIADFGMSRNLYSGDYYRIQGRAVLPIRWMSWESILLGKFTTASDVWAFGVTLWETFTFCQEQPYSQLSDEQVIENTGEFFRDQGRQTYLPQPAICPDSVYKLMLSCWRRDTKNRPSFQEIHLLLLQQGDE

KinomeScan kinase panel [3] = target: T3, KinomeScan kinase panel (Homo sapiens, UniProt Q9H2G2); details: 10 µM, read-out: score (%)
T3 construct: purchased DiscoveRx (KinomeScan)

KinomeScan kinase panel [4] = target: T4, KinomeScan kinase panel (Homo sapiens, UniProt Q32MK0); details: MLCK, 10 µM; read-out: score (%)
T4 construct: purchased DiscoveRx (KinomeScan)
T4 sequence (Q32MK0 1-819): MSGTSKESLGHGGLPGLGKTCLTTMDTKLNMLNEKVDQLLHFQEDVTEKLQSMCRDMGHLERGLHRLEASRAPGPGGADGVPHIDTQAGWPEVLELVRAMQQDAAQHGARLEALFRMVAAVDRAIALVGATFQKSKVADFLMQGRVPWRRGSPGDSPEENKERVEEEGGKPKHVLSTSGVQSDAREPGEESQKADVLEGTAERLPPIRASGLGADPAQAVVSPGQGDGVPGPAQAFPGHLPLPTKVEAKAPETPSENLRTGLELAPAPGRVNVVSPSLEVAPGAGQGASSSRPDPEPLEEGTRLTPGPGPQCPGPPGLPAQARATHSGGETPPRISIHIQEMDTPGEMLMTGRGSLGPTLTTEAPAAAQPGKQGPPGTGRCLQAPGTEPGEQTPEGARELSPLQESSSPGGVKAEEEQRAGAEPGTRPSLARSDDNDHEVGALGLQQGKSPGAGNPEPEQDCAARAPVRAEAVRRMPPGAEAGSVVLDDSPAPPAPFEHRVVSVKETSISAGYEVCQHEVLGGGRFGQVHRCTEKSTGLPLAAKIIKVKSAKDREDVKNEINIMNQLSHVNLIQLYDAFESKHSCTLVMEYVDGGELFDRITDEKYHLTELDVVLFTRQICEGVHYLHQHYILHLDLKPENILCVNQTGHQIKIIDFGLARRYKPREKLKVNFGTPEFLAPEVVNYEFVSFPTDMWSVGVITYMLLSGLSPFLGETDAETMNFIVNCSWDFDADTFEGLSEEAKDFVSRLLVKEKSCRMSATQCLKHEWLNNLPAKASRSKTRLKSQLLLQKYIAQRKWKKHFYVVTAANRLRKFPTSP

KinomeScan kinase panel [5] = target: T5, KinomeScan kinase panel (Homo sapiens, UniProt P49760); details: CLK2, 10 µM; read-out: score (%)
T5 construct: purchased DiscoveRx (KinomeScan)

KinomeScan kinase panel [6] = target: T6, KinomeScan kinase panel (Homo sapiens, UniProt Q13188); details: MST2, 10 µM; read-out: score (%)
T6 construct: purchased DiscoveRx (KinomeScan)
T6 sequence (Q13188 1-491): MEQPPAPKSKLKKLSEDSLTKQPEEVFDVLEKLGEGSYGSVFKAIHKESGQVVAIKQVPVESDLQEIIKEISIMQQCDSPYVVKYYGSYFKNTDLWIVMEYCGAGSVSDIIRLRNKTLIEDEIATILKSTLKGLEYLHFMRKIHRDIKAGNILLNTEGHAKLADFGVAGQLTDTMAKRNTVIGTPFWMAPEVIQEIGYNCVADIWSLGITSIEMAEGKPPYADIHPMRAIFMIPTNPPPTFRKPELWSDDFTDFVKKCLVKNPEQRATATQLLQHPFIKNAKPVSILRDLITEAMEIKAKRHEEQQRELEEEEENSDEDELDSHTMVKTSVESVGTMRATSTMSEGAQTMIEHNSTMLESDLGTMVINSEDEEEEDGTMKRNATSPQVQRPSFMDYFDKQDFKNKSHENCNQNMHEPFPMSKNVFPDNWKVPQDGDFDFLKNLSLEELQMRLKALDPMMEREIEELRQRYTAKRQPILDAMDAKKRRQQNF

T5 sequence (P49760 whole entry): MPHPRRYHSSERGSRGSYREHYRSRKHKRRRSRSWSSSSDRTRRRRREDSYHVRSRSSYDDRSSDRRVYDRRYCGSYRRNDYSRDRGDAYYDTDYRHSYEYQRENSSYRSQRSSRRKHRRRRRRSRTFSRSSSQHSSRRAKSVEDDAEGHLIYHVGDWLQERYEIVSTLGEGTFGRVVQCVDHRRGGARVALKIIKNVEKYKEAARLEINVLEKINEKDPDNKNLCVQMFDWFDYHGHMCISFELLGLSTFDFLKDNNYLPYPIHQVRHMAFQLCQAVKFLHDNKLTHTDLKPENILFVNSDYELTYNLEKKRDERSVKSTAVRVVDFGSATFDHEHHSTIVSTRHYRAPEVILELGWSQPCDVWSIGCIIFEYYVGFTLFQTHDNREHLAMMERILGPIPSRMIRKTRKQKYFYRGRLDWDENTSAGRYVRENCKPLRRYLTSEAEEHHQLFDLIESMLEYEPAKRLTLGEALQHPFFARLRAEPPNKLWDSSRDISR
T3 sequence (Q9H2G2 whole entry): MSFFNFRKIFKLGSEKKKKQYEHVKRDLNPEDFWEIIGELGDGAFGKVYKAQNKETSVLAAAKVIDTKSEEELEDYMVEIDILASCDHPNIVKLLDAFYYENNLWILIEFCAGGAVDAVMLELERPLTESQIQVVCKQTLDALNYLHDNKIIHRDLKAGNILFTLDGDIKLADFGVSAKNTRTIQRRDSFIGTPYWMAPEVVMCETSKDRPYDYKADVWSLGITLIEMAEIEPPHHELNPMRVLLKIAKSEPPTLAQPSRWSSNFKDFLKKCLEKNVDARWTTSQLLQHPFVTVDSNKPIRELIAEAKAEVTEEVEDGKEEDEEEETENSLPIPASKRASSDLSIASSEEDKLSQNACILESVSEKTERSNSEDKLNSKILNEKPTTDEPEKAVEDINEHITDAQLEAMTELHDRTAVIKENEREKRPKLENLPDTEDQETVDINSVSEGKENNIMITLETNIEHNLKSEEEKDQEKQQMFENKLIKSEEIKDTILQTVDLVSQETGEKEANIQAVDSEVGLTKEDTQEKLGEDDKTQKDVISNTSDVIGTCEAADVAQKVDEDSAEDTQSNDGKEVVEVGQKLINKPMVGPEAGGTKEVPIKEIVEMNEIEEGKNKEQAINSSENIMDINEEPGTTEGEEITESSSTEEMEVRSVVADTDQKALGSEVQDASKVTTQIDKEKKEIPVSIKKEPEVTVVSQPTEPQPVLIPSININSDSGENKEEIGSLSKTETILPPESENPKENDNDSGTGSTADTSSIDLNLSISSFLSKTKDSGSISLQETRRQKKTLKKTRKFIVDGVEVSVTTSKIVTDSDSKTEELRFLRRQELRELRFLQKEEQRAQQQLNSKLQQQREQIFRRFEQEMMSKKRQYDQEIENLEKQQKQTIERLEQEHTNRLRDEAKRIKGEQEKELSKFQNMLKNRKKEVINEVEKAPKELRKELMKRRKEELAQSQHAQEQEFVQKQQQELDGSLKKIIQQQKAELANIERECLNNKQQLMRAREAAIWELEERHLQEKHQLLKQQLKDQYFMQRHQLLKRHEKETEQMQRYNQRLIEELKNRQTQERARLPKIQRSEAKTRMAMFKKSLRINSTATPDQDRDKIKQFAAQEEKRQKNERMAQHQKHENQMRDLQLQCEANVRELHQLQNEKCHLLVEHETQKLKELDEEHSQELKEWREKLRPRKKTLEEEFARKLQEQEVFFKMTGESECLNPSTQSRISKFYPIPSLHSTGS
T1 sequence (O43293 whole entry): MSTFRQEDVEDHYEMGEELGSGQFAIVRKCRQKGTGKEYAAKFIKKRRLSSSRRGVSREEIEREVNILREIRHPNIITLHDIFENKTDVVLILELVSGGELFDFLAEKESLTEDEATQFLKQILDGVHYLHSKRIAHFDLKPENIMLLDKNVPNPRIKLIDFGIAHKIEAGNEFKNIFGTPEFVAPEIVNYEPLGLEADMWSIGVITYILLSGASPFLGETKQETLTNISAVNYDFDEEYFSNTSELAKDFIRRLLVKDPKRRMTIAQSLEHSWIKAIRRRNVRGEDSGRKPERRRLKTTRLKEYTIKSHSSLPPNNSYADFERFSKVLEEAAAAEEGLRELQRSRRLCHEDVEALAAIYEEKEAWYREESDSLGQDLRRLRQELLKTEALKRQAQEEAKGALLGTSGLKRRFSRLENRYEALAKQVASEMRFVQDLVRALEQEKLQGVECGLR

remaining binding at 10 µM (KinomeScan kinase panel [3]; SLK) [%]	SMILES	remaining binding at 10 µM (KinomeScan kinase panel [1]) [%]	remaining binding at 10 µM (KinomeScan kinase panel [2]) [%]	remaining binding at 10 µM (KinomeScan kinase panel [3]; kinase SLK) [%]	remaining binding at 10 µM (KinomeScan kinase panel [4]) [%]	remaining binding at 10 µM (KinomeScan kinase panel [5]) [%]	remaining binding at 10 µM (KinomeScan kinase panel [6]) [%]
	CCN1CCN(Cc2ccc(NC(=O)c3ccc(C)c(NC(=O)c4cncc(-c5cccs5)c4)c3)cc2C(F)(F)F)CC1 [ALW-II-41-27]	> 30	12	5	> 30	2.4	> 30
0.85	CCN1CCN(Cc2ccc(NC(=O)c3ccc(C)c(/C=C/c4cnc5[nH]ccc5c4Cl)c3)cc2C(F)(F)F)CC1 [HG-6-63-01, (E)-3-(2-(4-chloro-1H-pyrrolo[2,3-b]pyridin-5-yl)vinyl)-N-(4-((4-ethylpiperazin-1-yl)methyl)-3-(trifluoromethyl)phenyl)-4-methylbenzamide]	> 30	0.8		5.9	> 30	10
	CCN1CCN(Cc2ccc(NC(=O)c3ccc(C)c(C#Cc4cccnc4)c3)cc2C(F)(F)F)CC1 [XMD15-44]	> 30	1	0.1	> 30	> 30	> 30
